These results are taken from patent US6323240A, “4-phenyl-4-oxo-butanoic acid derivatives with kynurenine-3-hydroxylase inhibiting activity” (Pharmacia & Upjohn S.p.A., priority 1995, dated 2001).

Data set [1] concerns the target T1, kynurenine-3-hydroxylase (Rattus norvegicus, UniProt O88867). The data set can be described thus: Kynurenine-3-hydroxylase assay in the rat brain (conversion of L-kynurenine to L-3-hydroxykynurenine, HPLC with coulometric detection). In kind it is biochemical. Particulars: rat brain homogenate; 50 μM L-kynurenine; pH 7.5; 60 min. The protocol:
Kynurenine-3-hydroxylase Assay in the Rat Brain
Brain was homogenized in ice-cold 0.32 M sucrose and centrifuged at 12000×g for 30 min at 4° C. The pellet was washed three times with 0.32 M sucrose by centrifugation and suspended in 0.14 M KCl in 20 mM K-phosphate buffer at pH 7 (1 g tissue in 2 ml buffer).
The reaction mixture contained: 75 μl of suspended homogenate; 100 μl of substrate solution containing 50 mM K-phosphate buffer pH 7.5, 2 mM MgCl2, 0.4 mM NADPH, 50 μM L-kynurenine (final concentration), and 25 μl of different concentrations of inhibitor solutions. The reaction was stopped by addition of 200 μl of 1 M HClO4 after 60 min incubation. L-3-hydroxykynurenine formed was quantified by HPLC with coulometric detection at a working voltage of +0.2 V. The column was a 10 cm C18 reversed phase (3 μm. The mobile phase consisted of 950 ml distilled water, 20 ml acetonitrile, 9 ml triethylamine, 5.9 ml phosphoric acid, 100 mg sodium EDTA and 1.5 g heptanesulfonic acid. The flow rate was 1 ml/min.

Data set [2] concerns the target T1, kynurenine-3-hydroxylase. Nature of the data set: Kynurenine-3-hydroxylase assay in the rat liver (radiometric, tritiated water release, rat liver mitochondrial extract). In kind it is biochemical. Particulars: 0.025 mM L-kynurenine, pH 8.1, 37° C., 30 min. Details: Rat liver mitochondrial extract was used as enzymatic preparation for this assay; from tissue; host or cells: rat liver mitochondrial extract. The protocol:
Kynurenine-3-hydroxylase Assay in the Rat Liver
The assay for kynurenine 3-hydroxylase was based on the enzymatic synthesis of tritiated water during the hydroxylation reaction. Radiolabeled water was quantified following selective adsorption of the isotopic substrate and its metabolite with activated charcoal.
Rat liver mitochondrial extract was used as enzymatic preparation for this assay.
The assay for kynurenine 3-hydroxylase activity was carried out at 37° C. for a time of 30 min. The reaction mixture of a total volume of […] was constituted of […] of suspended extract, 100 mM Tris/Cl^- buffer pH 8.1, 10 mM EDTA, 100 mM Kcl, 0.8 mM NADPH, 0.025 mM L-kynurenine, […] L-(3,5-^3 H)Kynurenine (10 Ci/mmol) and […] of different concentration of inhibitor solutions. After the incubation the reaction was terminated by the addition of 1 mL of 7.5% (w/v) activated charcoal, vortexed and centrifugated for 7 min.
A […] aliquot of supernatant was counted by scintillation spectroscopy in 5 ml of liquid scintillation.

Data set [3] relates to ionotropic excitatory aminoacid receptors. Particulars: preferentially acting at the glycine co-agonist site of the NMDA receptor; cited from earlier work.
Data set [4] relates to CNS. Particulars: cited from earlier work.
The test system of data set [5] is excitotoxic neuronal damage evoked by QUIN. The following applies: co-injected with QUIN; cited from earlier work.
Data set [6] relates to N-methyl-D-aspartate (NMDA) receptor. The following applies: cited from earlier work.
Data set [7] has as its system neuronal cell cultures. The following applies: relatively low concentrations; prolonged period of time or in combination with glutamate; cited from earlier work.

Each structure is given as a SMILES string.

By IC50 is commonly meant the concentration needed to halve the response being measured. Low readings indicate greater potency, high ones weaker potency.

T1 sequence (O88867 whole entry): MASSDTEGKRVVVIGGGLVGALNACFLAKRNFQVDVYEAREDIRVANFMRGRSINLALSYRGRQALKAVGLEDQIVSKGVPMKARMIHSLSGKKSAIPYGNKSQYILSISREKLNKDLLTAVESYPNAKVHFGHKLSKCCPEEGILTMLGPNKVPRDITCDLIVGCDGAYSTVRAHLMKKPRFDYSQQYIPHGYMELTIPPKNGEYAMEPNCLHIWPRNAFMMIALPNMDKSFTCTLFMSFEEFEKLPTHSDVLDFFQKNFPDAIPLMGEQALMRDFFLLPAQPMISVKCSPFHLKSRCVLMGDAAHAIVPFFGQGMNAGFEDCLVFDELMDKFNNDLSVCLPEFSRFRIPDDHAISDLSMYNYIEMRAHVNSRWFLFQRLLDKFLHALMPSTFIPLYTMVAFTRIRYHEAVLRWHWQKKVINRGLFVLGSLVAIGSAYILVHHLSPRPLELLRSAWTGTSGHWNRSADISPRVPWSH

For the compound `CC(CC(=O)c1ccc(F)c(F)c1)C(=O)O` (racemic) [PNU 157952, (R,S)-2-methyl-4-(3',4'-difluorophenyl)-4-oxo-butanoic acid], the IC50 worked out at 3.9 µM in data set [1] and 55.1 µM in data set [2].

With `COC(CC(=O)c1ccc(F)c(F)c1)C(=O)O` (racemic) [PNU 158380, (R,S)-2-methoxy-4-(3',4'-difluorophenyl)-4-oxo-butanoic acid], the IC50 worked out at 12.6 µM in data set [1] and 42.4 µM in data set [2].

As for `O=C(CC(Cl)C(=O)O)c1ccc(Cl)c(Cl)c1` (racemic) [PNU 158781, (R,S)-2-chloro-4-(3',4'-dichlorophenyl)-4-oxo-butanoic acid], in data set [2], the IC50 stood at 13.3 µM.

For the compound `O=C(CC(O)C(=O)O)c1cccc(Cl)c1` (racemic) [PNU 158789, (R,S)-2-hydroxy-4-(3'-chlorophenyl)-4-oxo-butanoic acid], the half-inhibitory concentration (IC50) in data set [1] came to 0.45 µM; in data set [2], 1.8 µM.

For `COC(=O)C(O)CC(=O)c1ccc(Cl)c(Cl)c1` (racemic) [PNU 161211, Methyl(R,S)-2-hydroxy-4-(3',4'-dichlorophenyl)-4-oxo-butanoate], the IC50 in data set [1] was 3.1 µM; in data set [2], 5.6 µM.

`CC(CC(=O)O)C(=O)c1ccc(Cl)c(Cl)c1` (racemic) [PNU 161243, (R,S)-3-methyl-4-(3',4'-dichlorophenyl)-4-oxo-butanoic acid] showed an IC50 in data set [1] of 14.3 µM.

In data set [2], `COC(=O)C(CC(=O)c1ccc(Cl)c(Cl)c1)Cc1ccccc1` (racemic) [PNU 167531, (R,S)-Methyl-2-benzyl-4-(3',4'-dichlorophenyl)-4-oxo-butanoate] registered an IC50 of 1.9 µM.

As to `O=C(O)CC(C(=O)c1ccc(Cl)c(Cl)c1)c1ccccc1` (racemic) [PNU 167541, (R,S)-3-phenyl-4-(3',4'-dichlorophenyl)-4-oxo-butanoic acid], in data set [2], the IC50 worked out at 55 µM.

With `O=C(O)c1cc(=O)c2ccccc2[nH]1` [KYNA, kynurenic acid], the “antagonism of the ionotropic excitatory aminoacid receptors” value in data set [3] is given as “broad spectrum antagonist”. Further, the “action when injected in the CNS” value in data set [4] is on record as “neuroprotective agent”. In addition, the “prevention of QUIN-evoked excitotoxic neuronal damage” value in data set [5] is “able to prevent the excitotoxic neuronal damage”.

As for `O=C(O)CCC(=O)c1ccc(Cl)c(Cl)c1` [PNU 156588, 4-(3',4'-dichlorophenyl)-4-oxo-butanoic acid], the IC50 came to 0.9 µM in data set [1] and 3.9 µM in data set [2].

Turning to `O=C(O)CCC(=O)c1ccc(F)c(F)c1` [PNU 157720, 4-(3',4'-difluorophenyl)-4-oxo-butanoic acid], the IC50 came to 3.7 µM in data set [1] and 18.3 µM in data set [2].

`COC(=O)CCC(=O)c1ccc(Cl)c(Cl)c1` [PNU 158381, Methyl 4-(3',4'-dichlorophenyl)-4-oxo-butanoate]: it took 5.7 µM to reach half-maximal inhibition in data set [2] (IC50).

In data set [2], `C=C(CC(=O)c1ccc(Cl)c(Cl)c1)C(=O)O` [PNU 158432, 2-methyliden-4-(3',4'-dichlorophenyl)-4-oxo-butanoic acid] registered an IC50 of 36 µM. Against the preceding compound, the IC50 is about 6.3-fold higher.

As to `O=C(O)C(O)C(Cc1ccccc1)C(=O)c1ccc(Cl)c(Cl)c1` (centres unmarked) [PNU 167536, 2-hydroxy-3-benzyl-4-(3',4'-dichlorophenyl)-4-oxo-butanoic acid], the IC50 in data set [2] is 61.6 µM. This IC50 is about 1.7-fold higher than that of the compound before.

With `O=C(O)c1cccnc1C(=O)O` [QUIN, quinolinic acid], in data set [6], the “agonism at the NMDA receptor” value was “highly selective agonist”. Moreover, the “neurotoxicity in neuronal cell cultures” value in data set [7] is listed as “neurotoxic”. For the same compound, the “in vivo lesions and convulsions” value in data set [4] (in vivo) is “convulsions and axon sparing lesions”. The “action when injected in the CNS” value in data set [4] is “neurotoxin”.
